Measurements published in ChEMBL document CHEMBL1240439, “Synthesis and docking studies of novel benzopyran-2-ones with anticancer activity” (2010).
The source made the active and inactive calls.

Experiments:
Type in all cases: functional
SF-295 = assay: Cytotoxicity against human SF295 cells assessed as cell growth at 10 uM after 48 hrs by sulforhodamine B assay
RPMI-8226 = assay: Cytotoxicity against human RPMI8226 cells assessed as cell growth at 10 uM after 48 hrs by sulforhodamine B assay
MOLT-4 = assay: Cytotoxicity against human MOLT4 cells assessed as cell growth at 10 uM after 48 hrs by sulforhodamine B assay
K562 = assay: Cytotoxicity against human K562 cells assessed as cell growth at 10 uM after 48 hrs by sulforhodamine B assay
NCI-H522 = assay: Cytotoxicity against human NCI-H522 cells assessed as cell growth at 10 uM after 48 hrs by sulforhodamine B assay
HT-29 = assay: Cytotoxicity against human HT-29 cells assessed as cell growth at 10 uM after 48 hrs by sulforhodamine B assay
PC-3 = assay: Cytotoxicity against human PC3 cells assessed as cell growth at 10 uM after 48 hrs by sulforhodamine B assay
UACC-62 = assay: Cytotoxicity against human UACC62 cells assessed as cell growth at 10 uM after 48 hrs by sulforhodamine B assay
HL-60(TB) = assay: Cytotoxicity against human HL-60(TB) cells assessed as cell growth at 10 uM after 48 hrs by sulforhodamine B assay
SR = assay: Cytotoxicity against human SR cells assessed as cell growth at 10 uM after 48 hrs by sulforhodamine B assay
EKVX = assay: Cytotoxicity against human EKVX cells assessed as cell growth at 10 uM after 48 hrs by sulforhodamine B assay
SK-MEL-2 = assay: Cytotoxicity against human SK-MEL-2 cells assessed as cell growth at 10 uM after 48 hrs by sulforhodamine B assay
OVCAR-4 = assay: Cytotoxicity against human OVCAR4 cells assessed as cell growth at 10 uM after 48 hrs by sulforhodamine B assay
T47D = assay: Cytotoxicity against human T47D cells assessed as cell growth at 10 uM after 48 hrs by sulforhodamine B assay
A549 = assay: Cytotoxicity against human A549 cells assessed as cell growth at 10 uM after 48 hrs by sulforhodamine B assay
HOP-62 = assay: Cytotoxicity against human HOP62 cells assessed as cell growth at 10 uM after 48 hrs by sulforhodamine B assay
HOP-92 = assay: Cytotoxicity against human HOP92 cells assessed as cell growth at 10 uM after 48 hrs by sulforhodamine B assay
NCI-H322M = assay: Cytotoxicity against human NCI-H322M cells assessed as cell growth at 10 uM after 48 hrs by sulforhodamine B assay
NCI-H460 = assay: Cytotoxicity against human NCI-H460 cells assessed as cell growth at 10 uM after 48 hrs by sulforhodamine B assay
NCI-H226 = assay: Cytotoxicity against human NCI-H226 cells assessed as cell growth at 10 uM after 48 hrs by sulforhodamine B assay
NCI-H23 = assay: Cytotoxicity against human NCI-H23 cells assessed as cell growth at 10 uM after 48 hrs by sulforhodamine B assay
COLO 205 = assay: Cytotoxicity against human COLO205 cells assessed as cell growth at 10 uM after 48 hrs by sulforhodamine B assay
HCC 2998 = assay: Cytotoxicity against human HCC2998 cells assessed as cell growth at 10 uM after 48 hrs by sulforhodamine B assay
HCT-116 = assay: Cytotoxicity against human HCT116 cells assessed as cell growth at 10 uM after 48 hrs by sulforhodamine B assay
HCT-15 = assay: Cytotoxicity against human HCT15 cells assessed as cell growth at 10 uM after 48 hrs by sulforhodamine B assay
KM12 = assay: Cytotoxicity against human KM12 cells assessed as cell growth at 10 uM after 48 hrs by sulforhodamine B assay
SW-620 = assay: Cytotoxicity against human SW620 cells assessed as cell growth at 10 uM after 48 hrs by sulforhodamine B assay
MCF7 = assay: Cytotoxicity against human MCF7 cells assessed as cell growth at 10 uM after 48 hrs by sulforhodamine B assay
MDA-MB-468 = assay: Cytotoxicity against human MDA-MB-468 cells assessed as cell growth at 10 uM after 48 hrs by sulforhodamine B assay
MDA-MB-231 = assay: Cytotoxicity against human MDA-MB-231 cells assessed as cell growth at 10 uM after 48 hrs by sulforhodamine B assay
Hs-578T = assay: Cytotoxicity against human Hs 578T cells assessed as cell growth at 10 uM after 48 hrs by sulforhodamine B assay
BT-549 = assay: Cytotoxicity against human BT549 cells assessed as cell growth at 10 uM after 48 hrs by sulforhodamine B assay
IGROV-1 = assay: Cytotoxicity against human IGROV1 cells assessed as cell growth at 10 uM after 48 hrs by sulforhodamine B assay
OVCAR-3 = assay: Cytotoxicity against human OVCAR-3 cells assessed as cell growth at 10 uM after 48 hrs by sulforhodamine B assay
OVCAR-5 = assay: Cytotoxicity against human OVCAR5 cells assessed as cell growth at 10 uM after 48 hrs by sulforhodamine B assay
OVCAR-8 = assay: Cytotoxicity against human OVCAR8 cells assessed as cell growth at 10 uM after 48 hrs by sulforhodamine B assay
SK-OV-3 = assay: Cytotoxicity against human SKOV3 cells assessed as cell growth at 10 uM after 48 hrs by sulforhodamine B assay
CCRF-CEM = assay: Cytotoxicity against human CCRF-CEM cells assessed as cell growth at 10 uM after 48 hrs by sulforhodamine B assay
786-0 = assay: Cytotoxicity against human 786-0 cells assessed as cell growth at 10 uM after 48 hrs by sulforhodamine B assay
A498 = assay: Cytotoxicity against human A498 cells assessed as cell growth at 10 uM after 48 hrs by sulforhodamine B assay
ACHN = assay: Cytotoxicity against human ACHN cells assessed as cell growth at 10 uM after 48 hrs by sulforhodamine B assay
SN12C = assay: Cytotoxicity against human SN12C cells assessed as cell growth at 10 uM after 48 hrs by sulforhodamine B assay
RXF 393 = assay: Cytotoxicity against human RXF393 cells assessed as cell growth at 10 uM after 48 hrs by sulforhodamine B assay
TK-10 = assay: Cytotoxicity against human TK10 cells assessed as cell growth at 10 uM after 48 hrs by sulforhodamine B assay
UO-31 = assay: Cytotoxicity against human UO31 cells assessed as cell growth at 10 uM after 48 hrs by sulforhodamine B assay
LOX IMVI = assay: Cytotoxicity against human LOXIMVI cells assessed as cell growth at 10 uM after 48 hrs by sulforhodamine B assay
M14 = assay: Cytotoxicity against human M14 cells assessed as cell growth at 10 uM after 48 hrs by sulforhodamine B assay
Malme-3M = assay: Cytotoxicity against human MALME-3M cells assessed as cell growth at 10 uM after 48 hrs by sulforhodamine B assay
MDA-MB-435 = assay: Cytotoxicity against human MDA-MB-435 cells assessed as cell growth at 10 uM after 48 hrs by sulforhodamine B assay
SK-MEL-28 = assay: Cytotoxicity against human SK-MEL-28 cells assessed as cell growth at 10 uM after 48 hrs by sulforhodamine B assay
SK-MEL-5 = assay: Cytotoxicity against human SK-MEL-5 cells assessed as cell growth at 10 uM after 48 hrs by sulforhodamine B assay
UACC-257 = assay: Cytotoxicity against human UACC257 cells assessed as cell growth at 10 uM after 48 hrs by sulforhodamine B assay
DU-145 = assay: Cytotoxicity against human DU145 cells assessed as cell growth at 10 uM after 48 hrs by sulforhodamine B assay
SF-268 = assay: Cytotoxicity against human SF268 cells assessed as cell growth at 10 uM after 48 hrs by sulforhodamine B assay
SF-539 = assay: Cytotoxicity against human SF539 cells assessed as cell growth at 10 uM after 48 hrs by sulforhodamine B assay
SNB-19 = assay: Cytotoxicity against human SNB19 cells assessed as cell growth at 10 uM after 48 hrs by sulforhodamine B assay
SNB-75 = assay: Cytotoxicity against human SNB75 cells assessed as cell growth at 10 uM after 48 hrs by sulforhodamine B assay
U-251 = assay: Cytotoxicity against human U251 cells assessed as cell growth at 10 uM after 48 hrs by sulforhodamine B assay

Measured: Activity

CCCc1cc(=O)oc2cc(OCC(=O)n3nc(C)cc3C)ccc12
inactive: all assays above

CSc1nnc(COc2ccc3c(-c4ccccc4)cc(=O)oc3c2C)o1
inactive: all assays above
